Assay results from patent US20230303569A1, “HETEROCYCLIC COMPOUNDS AS THERAPEUTIC AGENTS” (Arisan Therapeutics Inc., priority 2021, published 2023).
Like-named read-outs stand apart in the source and are kept apart here.

What was measured:
Format in all cases: cell-based
[1] = biological target: T1, human Nav1.5 (late current) (Homo sapiens, UniProt Q14524); assay: Nav1.5 Late Current Assay (QPatch HT whole-cell patch clamp, 30 nM ATX-II); settings: HEK293 cells stably expressing human Nav1.5, pH 7.3, late current with 30 nM ATX-II, read-out: percent inhibition hNav1.5 Late (5 uM)
T1 construct: host or cells: HEK293
Description: (§1) In vitro Na+ Current Inhibition Assays were performed by Eurofins Discovery (St Charles, MO). All compound functional activity determinations were determined through electrophysiological analyses of Na+ currents in HEK293 cells expressing a stably transfected Na+ channel (human Nav1.1, 1.2, 1.3, 1.5, 1.6, 1.7, or 1.8). After harvesting with Accutase cells are maintained in serum free medium at room temperature prior to electrophysiological recording utilizing the QPatch HT automated whole-cell patch-clamp platform (Sophion Bioscience, Woburn MA). Stock solution aliquots of the test compound are prepared in DMSO at 300× the final assay concentrations, and stored at −20° C. until the day of assay. On the day of the assay, an aliquot of the stock solution is thawed and diluted into external solution (137 mM NaCl, 4 mM KCl, 1 mM MgCl2, 1.8 mM CaCl2, 10 mM HEPES, 10 mM Glucose (pH 7.3, titrated with 10M NaOH) to make final test concentrations. A final concentration of 0.33% DMSO is maintained for each concentration of the assay compounds. Internal solution for recordings of Na+ consist consists of 100 mM CsF, 45 mM CsCl, 5 mM NaCl, 10 mM HEPES, 5 mM EGTA (pH 7.3, titrated with 1M CsOH).
Onset and steady state induction of late Nav1.5 current was measured using a pulse pattern, repeated every 5 sec, consisting of a hyperpolarizing pulse to −120 mV for a 200 ms duration, depolarization to −15 mV amplitude for a 40 ms duration, followed by step to 40 mV for 200 ms and finally a 100 ms ramp (1.2 V/s) to a holding potential of −80 mV. Each concentration of compound was applied for 5 minutes. The assay was performed at room temperature. After establishing vehicle control condition, all further addition of external solutions contain 30 nM ATX-II to activate late currents. Each concentration of compound was also co-applied with 30 nM ATXII to estimate the Nav1.5 late current inhibition. […]. ATXII was used as the agonist positive control and was tested concurrently with the test compound. Ranolazine was used as the positive control and was tested concurrently with the test compound.
Nav1.5 late current was measured as the total charge flowing through the Nav1.5 channels (area under the curve) 5 ms after the Nav1.5 peak current till the end of the test pulse and as charge at their maxima during the ramp. Individual cell results were normalized to their respective vehicle control and the results were averaged. The sodium current was assessed in 30 nM ATXII as vehicle control conditions and then at the end of each five (5) minute compound application in the presence of 30 nM ATXII. Individual cell result was normalized to 30 nM ATXII vehicle control amplitude and the mean±SEM calculated for each compound concentration.

[2] = biological target: T2, human Nav1.5 (peak current) (Homo sapiens, UniProt Q14524); assay: Nav1.5 Peak Current Assay (QPatch HT whole-cell patch clamp); settings: HEK293 cells stably expressing human Nav1.5, pH 7.3, peak current at step to -15 mV, read-out: percent inhibition hNav1.5 Peak (5 uM)
T2 construct: host or cells: HEK293
Description: as §1
Onset and steady state block of peak Nav1.5 current was measured using a pulse pattern, repeated every 5 sec, consisting of a hyperpolarizing pulse to −120 mV for a 200 ms duration, depolarization to -15 mV amplitude for a 40 ms duration, followed by step to 40 mV for 200 ms and finally a 100 ms ramp (1.2 V/s) to a holding potential of −80 mV. Peak current was measured during the step to −15 mV.
Each concentration of compound was applied for 5 minutes. The assay was performed at room temperature and Tetracaine was used concurrently as a positive control. Only current amplitudes in excess of 200 pA at the control stage were analyzed. The amplitude of the sodium current was calculated by measuring the difference between the peak inward current on stepping to −15 mV (i.e. peak of the current) and the leak current. The sodium current was assessed in vehicle control conditions and then at the end of each five (5) minute compound application. Individual cell result was normalized to the vehicle control amplitude and the mean±SEM calculated for each compound concentration.

human Nav1.6 = biological target: T3, human Nav1.6 (Homo sapiens, UniProt Q9UQD0); assay: Two pulse assay protocol, Nav1.6; settings: 5 uM, peak current
T3 construct: host or cells: HEK293
T3 sequence (Q9UQD0 whole entry): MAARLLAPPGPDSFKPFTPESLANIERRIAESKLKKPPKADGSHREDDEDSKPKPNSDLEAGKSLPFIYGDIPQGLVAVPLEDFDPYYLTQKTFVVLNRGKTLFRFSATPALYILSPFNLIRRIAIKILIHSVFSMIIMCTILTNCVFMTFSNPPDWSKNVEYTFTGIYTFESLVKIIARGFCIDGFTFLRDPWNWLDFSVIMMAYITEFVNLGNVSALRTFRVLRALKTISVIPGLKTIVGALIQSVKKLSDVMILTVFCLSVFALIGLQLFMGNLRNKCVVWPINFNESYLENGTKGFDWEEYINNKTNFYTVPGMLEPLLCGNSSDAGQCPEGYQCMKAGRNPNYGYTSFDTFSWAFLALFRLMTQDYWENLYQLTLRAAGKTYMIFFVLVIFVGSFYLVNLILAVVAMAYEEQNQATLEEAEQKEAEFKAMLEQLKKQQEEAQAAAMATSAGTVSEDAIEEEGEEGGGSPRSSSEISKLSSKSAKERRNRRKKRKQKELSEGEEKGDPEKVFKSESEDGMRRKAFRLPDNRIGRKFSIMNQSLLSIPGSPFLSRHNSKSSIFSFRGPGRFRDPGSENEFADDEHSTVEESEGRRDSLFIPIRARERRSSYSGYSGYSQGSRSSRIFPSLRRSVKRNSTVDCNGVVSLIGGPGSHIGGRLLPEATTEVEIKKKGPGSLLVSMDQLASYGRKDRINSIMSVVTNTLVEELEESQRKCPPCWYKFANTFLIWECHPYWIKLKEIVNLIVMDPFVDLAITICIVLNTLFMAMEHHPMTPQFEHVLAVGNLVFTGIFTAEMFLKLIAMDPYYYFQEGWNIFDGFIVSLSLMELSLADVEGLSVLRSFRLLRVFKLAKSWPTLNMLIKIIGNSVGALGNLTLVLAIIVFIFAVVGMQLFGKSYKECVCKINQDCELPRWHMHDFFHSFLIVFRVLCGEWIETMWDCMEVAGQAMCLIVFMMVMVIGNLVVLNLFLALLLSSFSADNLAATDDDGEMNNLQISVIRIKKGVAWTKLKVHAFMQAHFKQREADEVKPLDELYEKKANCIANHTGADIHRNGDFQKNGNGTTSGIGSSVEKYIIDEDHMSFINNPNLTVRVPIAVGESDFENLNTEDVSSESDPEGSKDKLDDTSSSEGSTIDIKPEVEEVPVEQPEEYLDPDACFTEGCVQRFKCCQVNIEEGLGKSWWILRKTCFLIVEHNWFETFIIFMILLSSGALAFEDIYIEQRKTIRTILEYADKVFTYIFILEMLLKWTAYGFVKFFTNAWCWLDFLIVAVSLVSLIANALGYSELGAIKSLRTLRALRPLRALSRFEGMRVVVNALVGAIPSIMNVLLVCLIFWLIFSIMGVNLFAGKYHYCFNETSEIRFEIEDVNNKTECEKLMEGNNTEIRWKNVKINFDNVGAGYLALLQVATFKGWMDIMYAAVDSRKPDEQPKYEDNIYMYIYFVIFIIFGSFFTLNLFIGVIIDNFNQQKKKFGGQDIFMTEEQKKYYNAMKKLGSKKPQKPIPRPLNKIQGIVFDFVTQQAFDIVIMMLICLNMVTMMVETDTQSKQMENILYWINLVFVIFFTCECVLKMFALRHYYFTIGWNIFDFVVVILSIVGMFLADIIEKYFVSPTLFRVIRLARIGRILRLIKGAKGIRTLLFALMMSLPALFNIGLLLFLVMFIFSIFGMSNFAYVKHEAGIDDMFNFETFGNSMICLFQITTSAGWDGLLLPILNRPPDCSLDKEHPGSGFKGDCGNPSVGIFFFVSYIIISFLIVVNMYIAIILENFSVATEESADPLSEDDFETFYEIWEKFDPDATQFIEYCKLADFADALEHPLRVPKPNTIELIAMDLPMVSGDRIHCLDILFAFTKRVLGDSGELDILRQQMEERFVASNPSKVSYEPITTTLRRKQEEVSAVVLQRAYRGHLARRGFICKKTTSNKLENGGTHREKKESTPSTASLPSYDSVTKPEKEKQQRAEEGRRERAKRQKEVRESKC
In short: (§2)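 Whole-cell automated patch clamp on HEK293 cells stably expressing each channel; CsF-based internal, pH 7.3 HEPES external, 0.33% DMSO. Every 20 s from −120 mV: 500 ms step to 0 mV (pulse 1, tonic), 10 ms at −120 mV, then 50 ms to 0 mV (pulse 2, state-dependent); peak current versus vehicle after each 5 min application.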

human Nav1.7 = biological target: T4, human Nav1.7 (Homo sapiens, UniProt Q15858); assay: Two pulse assay protocol, Nav1.7; settings: peak current
T4 construct: host or cells: HEK293
T4 sequence (Q15858 whole entry): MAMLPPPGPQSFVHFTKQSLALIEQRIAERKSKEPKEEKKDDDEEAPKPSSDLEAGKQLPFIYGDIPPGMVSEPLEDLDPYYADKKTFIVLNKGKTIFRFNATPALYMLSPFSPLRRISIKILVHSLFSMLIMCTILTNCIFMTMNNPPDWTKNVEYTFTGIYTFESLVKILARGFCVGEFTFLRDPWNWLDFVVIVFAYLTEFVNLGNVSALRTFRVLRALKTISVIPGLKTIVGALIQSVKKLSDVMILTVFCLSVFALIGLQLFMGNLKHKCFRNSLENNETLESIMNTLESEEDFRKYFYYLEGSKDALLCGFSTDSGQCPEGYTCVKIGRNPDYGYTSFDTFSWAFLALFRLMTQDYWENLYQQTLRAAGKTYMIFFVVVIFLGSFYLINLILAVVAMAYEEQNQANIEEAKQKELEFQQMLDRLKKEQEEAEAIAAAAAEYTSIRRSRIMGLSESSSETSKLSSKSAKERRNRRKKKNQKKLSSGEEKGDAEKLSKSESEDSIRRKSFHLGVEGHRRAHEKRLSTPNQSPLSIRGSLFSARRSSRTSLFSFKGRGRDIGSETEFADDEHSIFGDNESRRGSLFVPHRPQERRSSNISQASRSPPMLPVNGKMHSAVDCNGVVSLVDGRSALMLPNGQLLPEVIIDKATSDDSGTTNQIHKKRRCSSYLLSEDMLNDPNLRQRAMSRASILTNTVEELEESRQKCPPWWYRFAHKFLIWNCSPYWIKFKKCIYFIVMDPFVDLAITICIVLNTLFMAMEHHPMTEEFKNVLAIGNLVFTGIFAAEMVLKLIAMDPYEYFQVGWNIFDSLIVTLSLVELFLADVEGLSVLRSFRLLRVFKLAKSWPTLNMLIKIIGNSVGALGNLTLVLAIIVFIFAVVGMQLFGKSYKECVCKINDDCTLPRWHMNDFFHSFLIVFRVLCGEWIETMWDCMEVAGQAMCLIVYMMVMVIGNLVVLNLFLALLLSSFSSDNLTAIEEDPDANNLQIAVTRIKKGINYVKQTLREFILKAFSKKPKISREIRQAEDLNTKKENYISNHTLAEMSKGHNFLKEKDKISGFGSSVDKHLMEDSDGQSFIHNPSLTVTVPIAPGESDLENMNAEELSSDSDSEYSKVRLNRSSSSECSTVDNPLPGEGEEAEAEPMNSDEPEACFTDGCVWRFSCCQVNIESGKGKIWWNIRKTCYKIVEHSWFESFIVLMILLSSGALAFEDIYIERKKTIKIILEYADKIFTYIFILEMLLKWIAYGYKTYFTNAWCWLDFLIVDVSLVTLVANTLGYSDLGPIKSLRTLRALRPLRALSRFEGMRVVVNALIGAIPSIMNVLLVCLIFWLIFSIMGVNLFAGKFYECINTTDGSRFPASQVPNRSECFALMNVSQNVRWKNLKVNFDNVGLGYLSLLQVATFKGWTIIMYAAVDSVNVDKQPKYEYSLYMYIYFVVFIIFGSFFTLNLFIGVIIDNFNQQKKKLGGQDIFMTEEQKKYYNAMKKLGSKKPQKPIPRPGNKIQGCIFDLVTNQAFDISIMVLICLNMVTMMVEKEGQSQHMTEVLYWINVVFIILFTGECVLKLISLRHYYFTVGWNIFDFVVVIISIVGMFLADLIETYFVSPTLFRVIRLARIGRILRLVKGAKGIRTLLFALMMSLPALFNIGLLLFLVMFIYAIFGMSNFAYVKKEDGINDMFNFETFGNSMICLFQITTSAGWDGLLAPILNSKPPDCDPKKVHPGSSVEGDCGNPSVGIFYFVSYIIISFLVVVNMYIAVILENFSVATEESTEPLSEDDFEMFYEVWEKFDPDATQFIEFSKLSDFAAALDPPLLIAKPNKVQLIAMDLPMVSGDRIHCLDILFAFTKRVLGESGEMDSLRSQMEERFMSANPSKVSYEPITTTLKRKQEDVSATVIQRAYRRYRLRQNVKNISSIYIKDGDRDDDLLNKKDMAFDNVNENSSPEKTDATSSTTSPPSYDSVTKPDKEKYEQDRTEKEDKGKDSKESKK
Description: as §1
(§3) Two pulse assay protocol for human Nav1.1, 1.2, 1.3, 1.5, 1.6, 1.7, and 1.8 channels. Mammalian cultured cells expressing the indicated human Nav1.1, 1.2, 1.3, 1.5, 1.6, 1.7 or 1.8 channels were assayed using the The QPatch HT (Sophion Bioscience, Woburn MA) automated system with an intracellular solution (mM) of 100 CsF, 45 CsCl, 5 NaCl, 10 HEPES, 5 EGTA (pH 7.3, titrated with 1M CsOH) and extracellular solution (mM) of 137 NaCl, 4 KCl, 1 MgCl2, 1.8 CaCl2, 10 HEPES, 10 Glucose (pH 7.3, titrated with 10M NaOH). Onset and steady state block of the sodium channel was measured using a pulse pattern, repeated every 20 seconds (s) from a holding potential of −120 mV for 100 ms, and then pulsed to 0 mV for 500 ms to inactivate the Na channels and facilitate inactivated state-dependent binding of the test compounds. The cell membranes were then stepped back to −120 mV for 10 ms to recover from inactivation into resting or closed state (channels with test compound bound to them will not recover from inactivation and will not open) before stepping to 0 mV for 50 ms (pulse 2) to measure Na channels that are available to open. Peak current was measured during the step to 0 mV at pulse 1 and 2 to measure tonic and state-dependent inhibition. Compound activities were assessed by dividing post current amplitude (at the end of each five (5) minute compound application) by the vehicle control amplitude and the mean calculated for each compound concentration. Tetracaine was used as a positive control and was tested concurrently with the test compounds. Current amplitudes in excess of 200 pA at the control stage were analyzed. The amplitude of the current was calculated by measuring the difference between the peak inward current on stepping to 0 mV (i.e. peak of the current) and remaining current at the end of the step. The current was assessed in vehicle control conditions and then at the end of each five (5) minute compound application.

human Nav1.8 = biological target: T5, human Nav1.8 (Homo sapiens, UniProt Q9Y5Y9); assay: Two pulse assay protocol, Nav1.8; settings: peak current
T5 construct: host or cells: HEK293
In short: as §2

human Nav1.1 = biological target: T6, human Nav1.1 (Homo sapiens, UniProt P35498); assay: Two pulse assay protocol, Nav1.1; settings: peak current
T6 construct: host or cells: HEK293
Description: (§4) In vitro Na+ Current Inhibition Assays were performed by Eurofins Discovery (St Charles, MO). All compound functional activity determinations were determined through electrophysiological analyses of Na+ currents in HEK293 cells expressing a stably transfected Na+ channel (human Nav1.1, 1.2, 1.3, 1.5, 1.6, 1.7, or 1.8). After harvesting with Accutase cells are maintained in serum free medium at room temperature prior to electrophysiological recording utilizing the QPatch HT automated whole-cell patch-clamp platform (Sophion Bioscience, Woburn MA). […]
(§5) Two pulse assay protocol for human Nav1.1, 1.2, 1.3, 1.5, 1.6, 1.7, and 1.8 channels. […] Onset and steady state block of the sodium channel was measured using a pulse pattern, repeated every 20 seconds (s) from a holding potential of −120 mV for 100 ms, and then pulsed to 0 mV for 500 ms to inactivate the Na channels and facilitate inactivated state-dependent binding of the test compounds. […] Peak current was measured during the step to 0 mV at pulse 1 and 2 to measure tonic and state-dependent inhibition. Compound activities were assessed by dividing post current amplitude (at the end of each five (5) minute compound application) by the vehicle control amplitude and the mean calculated for each compound concentration. […] Current amplitudes in excess of 200 pA at the control stage were analyzed. […]

human Nav1.2 = biological target: T7, human Nav1.2 (Homo sapiens, UniProt Q99250); assay: Two pulse assay protocol, Nav1.2; settings: peak current
T7 construct: host or cells: HEK293
Description: as §1, §3

human Nav1.3 = biological target: T8, human Nav1.3 (Homo sapiens, UniProt Q9NY46); assay: Two pulse assay protocol, Nav1.3; settings: peak current
T8 construct: host or cells: HEK293
Description: as §4, §5

[3] = pulse 1 (tonic), read-out: percent inhibition hNav1.6, Pulse 1 (5 uM)
[4] = pulse 2 (state-dependent), read-out: percent inhibition hNav1.6, Pulse 2 (5 uM)
[5] = pulse 1 (tonic), read-out: percent inhibition hNav1.7, Pulse 1 (5 uM)
[6] = pulse 2 (state-dependent), read-out: percent inhibition hNav1.7, Pulse 2 (5 uM)
[7] = pulse 1 (tonic), read-out: percent inhibition hNav1.8, Pulse 1 (5 uM)
[8] = pulse 2 (state-dependent), read-out: percent inhibition hNav1.8, Pulse 2 (5 uM)

Structure (SMILES) | inhibition at 5 min, 5 uM [1] [%] | inhibition at 5 min, 5 µM [2] [%] | inhibition at 5 µM (human Nav1.6; [3]) [%] | inhibition at 5 µM (human Nav1.6; [4]) [%] | inhibition at 5 µM (human Nav1.7; [5]) [%] | inhibition at 5 µM (human Nav1.7; [6]) [%] | inhibition at 5 µM (human Nav1.8; [7]) [%] | inhibition at 5 µM (human Nav1.8; [8]) [%] | inhibition at 5 µM (human Nav1.1; pulse 1 (tonic), read-out: percent inhibition hNav1.1, Pulse 1 (5 uM)) [%] | inhibition at 5 µM (human Nav1.1; pulse 2 (state-dependent), read-out: percent inhibition hNav1.1, Pulse 2 (5 uM)) [%] | inhibition at 5 µM (human Nav1.2; pulse 1 (tonic), read-out: percent inhibition hNav1.2, Pulse 1 (5 uM)) [%] | inhibition at 5 µM (human Nav1.2; pulse 2 (state-dependent), read-out: percent inhibition hNav1.2, Pulse 2 (5 uM)) [%] | inhibition at 5 µM (human Nav1.3; pulse 1 (tonic), read-out: percent inhibition hNav1.3, Pulse 1 (5 uM)) [%] | inhibition at 5 µM (human Nav1.3; pulse 2 (state-dependent), read-out: percent inhibition hNav1.3, Pulse 2 (5 uM)) [%]
Cc1cc2ncc(-c3ccc(OC(C)(C)C)cc3)n2cc1-c1ccc(OC(C)C)cc1 [Example C55, 3-(4-(tert-butoxy)phenyl)-6-(4-isopropoxyphenyl)-7-methylimidazo[1,2-a]pyridine] | 50 to 90 | < 50 | < 50 | > 90 | < 50 | 50 to 90 | < 50 | < 50 | – | – | – | – | – | –
CC(C)Oc1ccc(-c2ccc3ncc(-c4ccc(OC(C)(C)C)cc4)n3c2)cc1 [Example C32, 3-[4-(tert-butoxy)phenyl]-6-[4-(propan-2-yloxy)phenyl]imidazo[1,2-a]pyridine] | > 90 | 50 to 90 | < 50 | > 90 | – | – | – | – | – | – | – | – | – | –
CC(C)Oc1ccc(-c2cnc3ccc(-c4ccc(OC(C)C)nc4)cn23)cc1 [Example C12, 2-(propan-2-yloxy)-5-{3-[4-(propan-2-yloxy)phenyl]imidazo[1,2-a]pyridin-6-yl}pyridine] | > 90 | 50 to 90 | < 50 | > 90 | < 50 | > 90 | – | – | < 50 | > 90 | < 50 | > 90 | < 50 | > 90
Cc1cc2ncc(-c3ccc(OC(C)C)nc3)n2cc1-c1ccc(OC(C)C)cc1 [Example C70, 6-(4-isopropoxyphenyl)-3-(6-isopropoxypyridin-3-yl)-7-methylimidazo[1,2-a]pyridine] | 50 to 90 | < 50 | < 50 | < 50 | – | – | – | – | – | – | – | – | – | –
CC(C)Oc1ccc(-c2ccc3ncc(-c4ccc(OC(C)C)nc4)n3c2)cc1 [Example C37, 2-(propan-2-yloxy)-5-{6-[4-(propan-2-yloxy)phenyl]imidazo[1,2-a]pyridin-3-yl}pyridine] | > 90 | < 50 | < 50 | > 90 | < 50 | > 90 | < 50 | 50 to 90 | – | – | – | – | – | –
